Test results taken from patent publication US7652067B2, “Aqueous compositions containing monoester salts” (Millenium Specialty Chemicals, Inc., priority 2006, dated 2010).

Key:
[1] = Organoleptic test of physiological cooling effect
Text: The resulting mixture is a clear, homogeneous solution of WS-3 (˜0.83%) in aqueous Na-MMG.

[2] = Control experiment: stirring hydrophobic compound with pure water; details: for control experiment with water: outcome: compound stirred with water without solubilizer
[3] = Solubilization of hydrophobic organic compound in aqueous sodium monomenthyl glutarate (Na-MMG); details: for concentration of hydrophobic compound in clear, homogeneous solution in aqueous Na-MMG: MMG neutralised with 8.8% aqueous sodium bicarbonate; for times better dissolved in aqueous Na-MMG than in pure water: aqueous Na-MMG vs pure water
Method: Aqueous sodium bicarbonate (98 g, 8.8% solution) is added over about 20 minutes to a stirred mixture of monomenthyl glutarate (“MMG,” 25 g) and dodecane (3.0 g). After the addition is complete and CO2 evolution stops, the mixture is stirred for 2 h and is then allowed to settle. The resulting mixture is a clear, homogeneous solution of dodecane (˜2.5%) in aqueous sodium monomenthyl glutarate (Na-MMG).
A clear aqueous solution of Na-MMG is obtained by reacting monomenthyl glutarate (25 g) with aqueous sodium bicarbonate (98 g of 8.8% solution). […] The mixture stirs for about 2 h and is allowed to cool to ambient temperature. […] Dilution with an equal volume of water produces a solution that remains clear for more than 40 days.
Aqueous sodium bicarbonate (196 g, 8.8% solution) is added to a stirred mixture of monomenthyl glutarate (50 g) and N-ethyl-p-menthane-3-carboxamide (“WS-3,” 2.0 g). After the addition is complete and CO2 evolution stops, the mixture is stirred for 1 h and is then allowed to sit overnight. The resulting mixture is a clear, homogeneous solution of WS-3 (˜0.83%) in aqueous Na-MMG.
More WS-3 (1.0 g) is added to the aqueous composition. The mixture stirs for 1 h and is allowed to stand overnight. The mixture is filtered to remove undissolved crystals (0.6 g).
Dilution with an equal volume of water produces a solution that remains clear for more than 40 days.

[4] = Dilution of the clear aqueous composition with an equal volume of water (clarity / emulsification); type: physicochemical; details: clear composition in aqueous Na-MMG diluted 1:1 with water
Method: It may be desirable to dilute the aqueous compositions with water. The amount of water that can be added while maintaining a clear aqueous solution depends on many factors known to those skilled in the art, including the nature of the hydrophobic organic compound, the particular monoester salt, the concentration of each of these components, and other factors. In general, the desirability of diluting the aqueous composition is determined empirically.

[5] = Solubilization of hydrophobic organic compound in aqueous sodium monooctyl glutarate (Na-MOG); type: physicochemical; details: MOG 22.6 g, procedure of Example 1
Text: The procedure of Example 1 is followed except that monooctyl glutarate (MOG, 22.6 g) and p-cymene (5 g) are used. The resulting mixture is a clear, homogeneous solution of p-cymene (˜4.4%) in aqueous sodium monooctyl glutarate (Na-MOG).

[6] = Solubilization of hydrophobic organic compound in aqueous sodium monomenthyl succinate (Na-MMS); type: physicochemical; details: MMS 23.7 g, procedure of Example 1
Text: The procedure of Example 1 is followed except that monomenthyl succinate (MMS, 23.7 g) and p-cymene (3 g) are used. The resulting mixture is a clear, homogeneous solution of p-cymene (˜2.5%) in aqueous sodium monomenthyl succinate (Na-MMS).

SMILES	concentration of hydrophobic compound in clear, homogeneous solution in aqueous Na-MMG [3] [%]	control experiment with water: outcome [2]	time solution remains clear after dilution with an equal volume of water [4]	also measured
CCNC(=O)[C@@H]1C[C@H](C)CC[C@H]1C(C)C [WS-3, N-ethyl-p-menthane-3-carboxamide]	~0.83			cooling effect when tested organoleptically ([1]; filtrate, ~1.0% WS-3 in aqueous Na-MMG): strong cooling effect; cooling effect when tested organoleptically ([1]; ~0.83% WS-3 in aqueous Na-MMG, pH 7.4): strong cooling effect; solubility in pure water ([2]; 20° C.): ~0.03%; times better dissolved in aqueous Na-MMG than in pure water [3]: about 33 times; concentration of WS-3 in filtrate (aqueous Na-MMG) after removing undissolved crystals ([3]; more WS-3 added, stood overnight, filtered): ~1.0%
CC(C)=CCCC(C)CCO (stereo not drawn) [citronellol]	~3.6	fail to produce a homogeneous mixture	more than 40 days	
CC(C)=CCCC(C)CC#N (stereo not drawn) [citronellyl nitrile]	~3.6	fail to produce a homogeneous mixture		emulsification after dilution with an equal volume of water [4]: immediately produces an emulsion
C=C(C)[C@H]1CC=C(C)CC1 [d-limonene]		fails to produce a homogeneous mixture		
CCCCCCCCCCCC [dodecane]	~2.5	fails to produce a homogeneous mixture		undissolved compound recovered after settling ([2]; 12 g stirred with 876 g water for 2 h): 11.6 g; emulsification after dilution with an equal volume of water [4]: emulsifies within two days; times better dissolved in aqueous Na-MMG than in pure water [3]: at least 50 times
C=C(C)[C@@H]1CC=C(C)C(=O)C1 [l-carvone]	~3.6	fail to produce a homogeneous mixture	more than 40 days	
CC(C)[C@@H]1CC[C@@H](C)C[C@H]1O [l-menthol]	~2.5	no homogeneous mixture results	more than 40 days	physiological cooling effect (organoleptic test) ([1]; ~2.5% l-menthol solution in aqueous Na-MMG): strong physiological cooling effect; menthol content of aqueous solution in pure water control (gas chromatography) ([2]; 12 g in 876 g water, 2 h, initially 47° C. then ambient, filtered): 0.06%; times better dissolved in aqueous Na-MMG than in pure water [3]: at least 40 times
CC(C)[C@@H]1CC[C@@H](C)C[C@H]1OC(=O)[C@H](C)O [l-menthyl lactate]		fail to produce a homogeneous mixture	more than 40 days	
C=CC(C)(O)CCC=C(C)C (stereo not drawn) [linalool]		fail to produce a homogeneous mixture		concentration of hydrophobic compound in clear, homogeneous solution in aqueous Na-MOG [5]: ~2.7%
Cc1ccc(C(C)C)cc1 [p-cymene]	~3.6	fail to produce a homogeneous mixture		concentration of hydrophobic compound in clear, homogeneous solution in aqueous Na-MMS [6]: ~2.5%; emulsification after dilution with an equal volume of water [4]: ≤ 2 days; concentration of hydrophobic compound in clear, homogeneous solution in aqueous Na-MOG [5]: ~4.4%
Cc1c(C)c2c(c(C)c1O)CCC(C)(CCCC(C)CCCC(C)CCCC(C)C)O2 (stereo not drawn) [α-tocopherol]		fail to produce a homogeneous mixture	more than 40 days	concentration of hydrophobic compound in clear, homogeneous solution in aqueous Na-MOG [5]: ~2.6%
